Data taken from ChEMBL document CHEMBL1128364 (J Med Chem, 1995).
Numbered stars: 1 amine (or outer) side, 2 acyl side, 3 side chain; on linkers, the order of the positions; unused ones are H or OH. Bridge positions count the residues as written; N and C are the ends. Square brackets hold non-standard residues; d marks the D form. Peptide text beside a SMILES is read from it. X2 = O=C(CC1(S[*:2])CCCCC1)[*:1]

How the values were obtained:
[1] = molecular target: Vasopressin V2 receptor (Rattus norvegicus) (UniProt Q00788); test: Antidiuretic activity at V2 receptor.; settings: Urine
Vasopressin V1a receptor = Vasopressin V1a receptor (Rattus norvegicus, UniProt P30560); test: (§1) Anti-vasopressor activity at V1a receptor; settings: for Kb: read-out: pA2 (converted)
Oxytocin receptor [2] = molecular target: T1, Oxytocin receptor (Rattus norvegicus, UniProt P70536); test: In vitro antioxycic activity with out Mg2+.; settings: read-out: pA2 (converted)
T1 sequence (P70536 whole entry): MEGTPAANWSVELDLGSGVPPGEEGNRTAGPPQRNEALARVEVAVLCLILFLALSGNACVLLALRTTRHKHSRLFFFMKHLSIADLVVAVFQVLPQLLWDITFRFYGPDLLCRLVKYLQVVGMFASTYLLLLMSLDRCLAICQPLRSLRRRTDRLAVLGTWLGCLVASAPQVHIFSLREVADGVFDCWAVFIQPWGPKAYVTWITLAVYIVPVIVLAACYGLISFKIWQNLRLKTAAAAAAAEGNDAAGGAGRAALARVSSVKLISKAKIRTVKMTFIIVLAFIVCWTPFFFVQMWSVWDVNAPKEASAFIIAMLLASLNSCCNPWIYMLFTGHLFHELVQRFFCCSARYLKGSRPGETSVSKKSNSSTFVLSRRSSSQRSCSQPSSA

Vasopressin V2 receptor = Vasopressin V2 receptor (Rattus norvegicus, UniProt Q00788); test: (§2) Antidiuretic activity at V2 receptor; assay type: tissue-based, Urine; settings: read-out: pA2 (converted)
Oxytocin receptor [3] = molecular target: T1, Oxytocin receptor; test: In vitro anti-oxytocic activity with 0.5 mM Mg2+.; settings: for Kb: read-out: pA2 (converted)
Rattus norvegicus [4] = test: (§3) In vivo anti-oxytocic activity was determined.; assay type: functional, organism-based; settings: read-out: pA2 (converted)
Oxytocin receptor [5] = molecular target: T1, Oxytocin receptor; test: In vitro anti-oxytocic activity with out Mg2+.; settings: for Kb: read-out: pA2 (converted)
[6] = molecular target: Vasopressin V2 receptor (Rattus norvegicus) (UniProt Q00788); test: as §2; assay type: tissue-based; settings: Urine
[7] = molecular target: Vasopressin V1a receptor (Rattus norvegicus) (UniProt P30560); test: as §1
Rattus norvegicus [8] = test: as §3; assay type: functional

Vasopressin V2 receptor, sequence (Q00788 whole entry): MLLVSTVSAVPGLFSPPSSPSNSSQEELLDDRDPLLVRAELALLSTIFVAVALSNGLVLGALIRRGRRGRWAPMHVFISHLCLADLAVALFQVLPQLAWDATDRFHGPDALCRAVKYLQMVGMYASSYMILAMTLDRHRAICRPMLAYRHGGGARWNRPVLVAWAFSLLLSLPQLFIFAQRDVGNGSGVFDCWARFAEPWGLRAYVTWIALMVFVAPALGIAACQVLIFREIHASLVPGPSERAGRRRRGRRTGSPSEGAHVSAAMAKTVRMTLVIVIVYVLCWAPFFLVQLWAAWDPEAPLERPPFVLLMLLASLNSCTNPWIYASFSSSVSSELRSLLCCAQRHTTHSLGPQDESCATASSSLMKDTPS
Vasopressin V2 receptor (Rattus norvegicus), sequence (Q00788 whole entry): as above
Vasopressin V1a receptor (Rattus norvegicus), sequence (P30560 whole entry, looked up): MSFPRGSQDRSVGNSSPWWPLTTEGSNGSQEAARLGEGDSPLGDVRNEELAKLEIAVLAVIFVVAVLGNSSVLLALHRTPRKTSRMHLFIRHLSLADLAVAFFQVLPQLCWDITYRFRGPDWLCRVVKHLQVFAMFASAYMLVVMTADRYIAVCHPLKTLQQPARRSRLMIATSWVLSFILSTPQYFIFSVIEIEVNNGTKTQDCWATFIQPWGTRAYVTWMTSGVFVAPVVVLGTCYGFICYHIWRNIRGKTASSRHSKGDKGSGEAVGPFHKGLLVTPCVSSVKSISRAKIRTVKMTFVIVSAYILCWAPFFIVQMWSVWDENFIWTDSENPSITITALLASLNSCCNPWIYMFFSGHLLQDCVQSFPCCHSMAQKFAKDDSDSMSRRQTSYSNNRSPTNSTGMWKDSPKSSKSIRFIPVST
Vasopressin V1a receptor, sequence (P30560 whole entry): as the sequence (P30560 whole entry, looked up) above

| Structure (SMILES) | Kb (Vasopressin V1a receptor) | Kb (Vasopressin V2 receptor) | ED [7] | also measured |
| --- | --- | --- | --- | --- |
| NC(=O)CC[C@@H]1NC(=O)[C@H](Cc2ccccc2)NC(=O)[C@H](Cc2ccc(O)cc2)NC(=O)[C@H](N)CSSC[C@H](C(=O)N2CCC[C@H]2C(=O)N[C@@H](CCCN=C(N)N)C(=O)NCC(N)=O)NC(=O)[C@H](CC(N)=O)NC1=O | – | – | – | Antidiuretic activity [1]: 0.82 U mg-1 |
| CC[C@H](C)[C@@H]1NC(=O)[C@H](Cc2ccc(OC)cc2)NC(=O)CC2(CCCCC2)SSC[C@H](C(=O)N2CCC[C@H]2C(=O)N[C@@H](CCCN)C(=O)N[C@@H](Cc2ccc(O)cc2)C(N)=O)NC(=O)[C@H](CC(N)=O)NC(=O)[C@H]([C@@H](C)O)NC1=O [listing 1 of 2 here] | 148 nM | 3160 nM | – | Kb (Oxytocin receptor [2]): 11 nM; Kb (Oxytocin receptor [3]): 38.9 nM; Kb (Rattus norvegicus [4]): 83.2 nM |
| CC[C@H](C)[C@@H]1NC(=O)[C@H](Cc2ccc(OC)cc2)NC(=O)CC2(CCCCC2)SSC[C@H](C(=O)N2CCC[C@H]2C(=O)N[C@@H](CCCN)C(=O)O)NC(=O)[C@H](CC(N)=O)NC(=O)[C@H]([C@@H](C)O)NC1=O [listing 1 of 2 here] | 275 nM | 3980 nM | – | Kb (Oxytocin receptor [3]): 25.1 nM; Kb (Rattus norvegicus [4]): 138 nM; Kb (Oxytocin receptor [5]): 18.6 nM |
| CC(C)[C@@H]1NC(=O)[C@H](Cc2ccccc2)NC(=O)[C@@H](Cc2ccccc2)NC(=O)CC2(CCCCC2)SSC[C@H](C(=O)N2CCC[C@H]2C(=O)N[C@@H](CCCN=C(N)N)C(=O)NCC(N)=O)NC(=O)[C@H](CC(N)=O)NC1=O | 27.5 nM | 56.2 nM | 1.9 nM/kg | ED [6]: 3.9 nM/kg |
| CCOc1ccc(C[C@H]2NC(=O)CC3(CCCCC3)SSC[C@@H](C(=O)N3CCC[C@H]3C(=O)N[C@@H](CCCN=C(N)N)C(=O)NCC(N)=O)NC(=O)[C@H](CC(N)=O)NC(=O)[C@H](C(C)C)NC(=O)[C@H](Cc3ccccc3)NC2=O)cc1 | 6.03 nM | – | 0.45 nM/kg | ED [6]: 1.1 nM/kg |
| CC[C@H](C)[C@@H]1NC(=O)[C@@H](Cc2c[nH]c3ccccc23)NC(=O)CC2(CCCCC2)SSC[C@@H](C(=O)N2CCC[C@H]2C(=O)N[C@@H](CCCN)C(=O)NCC(N)=O)NC(=O)[C@H](CC(N)=O)NC(=O)[C@H]([C@@H](C)O)NC1=O [listing 1 of 2 here] | – | – | – | pA2 (Vasopressin V1a receptor): 5.43; pA2 (Oxytocin receptor [3]): 7.64; Kb (Rattus norvegicus [4]): 45.7 nM; pA2 (Oxytocin receptor [5]): 8.02 |
| CC[C@H](C)[C@@H]1NC(=O)[C@H](Cc2cc3ccccc3[nH]2)NC(=O)CC2(CCCCC2)SSC[C@H](C(=O)N2CCC[C@H]2C(=O)N[C@@H](CCCN=C(N)N)C(=O)NCC(N)=O)NC(=O)[C@H](CC(N)=O)NC(=O)[C@H](CCC(N)=O)NC1=O | – | – | 2 nM/kg | – |
| CC[C@H](C)[C@@H]1NC(=O)[C@H](Cc2ccc(OC)cc2)NC(=O)CC2(CCCCC2)SSC[C@H](C(=O)N2CCC[C@H]2C(=O)N[C@@H](CCCN)C(=O)NCC(N)=O)NC(=O)[C@H](CC(N)=O)NC(=O)[C@H](CCC(N)=O)NC1=O [listing 1 of 2 here] | – | – | – | ED (Rattus norvegicus [8]): 3.11 nM/kg |
| CC[C@H](C)[C@@H]1NC(=O)[C@@H](Cc2c[nH]c3ccccc23)NC(=O)CC2(CCCCC2)SSC[C@@H](C(=O)N2CCC[C@H]2C(=O)N[C@@H](CCCN)C(=O)NCC(N)=O)NC(=O)[C@H](CC(N)=O)NC(=O)[C@H]([C@@H](C)O)NC1=O [listing 2 of 2 here] | – | – | – | ED (Rattus norvegicus [8]): 3.08 nM/kg |
| CC[C@H](C)[C@@H]1NC(=O)[C@H](Cc2ccc(OC)cc2)NC(=O)CC2(CCCCC2)SSC[C@H](C(=O)N2CCC[C@H]2C(=O)N[C@@H](CCCN)C(=O)O)NC(=O)[C@H](CC(N)=O)NC(=O)[C@H]([C@@H](C)O)NC1=O [listing 2 of 2 here] | – | – | – | ED (Rattus norvegicus [8]): 9.24 nM/kg |
| CC[C@H](C)[C@@H]1NC(=O)[C@H](Cc2ccc(OC)cc2)NC(=O)CC2(CCCCC2)SSC[C@H](C(=O)N2CCC[C@H]2C(=O)N[C@@H](CCCN)C(=O)NCC(N)=O)NC(=O)[C@H](CC(N)=O)NC(=O)[C@H](CCC(N)=O)NC1=O [listing 2 of 2 here] | 56.2 nM | 1260 nM | – | Kb (Oxytocin receptor [3]): 36.3 nM; Kb (Rattus norvegicus [4]): 46.8 nM; Kb (Oxytocin receptor [5]): 22.4 nM |
| CC[C@H](C)[C@@H]1NC(=O)[C@H](Cc2ccc(OC)cc2)NC(=O)CC2(CCCCC2)SSC[C@@H](C(=O)N2CCC[C@H]2C(=O)N[C@@H](CCCN)C(=O)NCC(N)=O)NC(=O)[C@H](CC(N)=O)NC(=O)[C@H](CCC(N)=O)NC1=O | 11 nM | – | 0.8 nM/kg | Antidiuretic activity [6]: 0.01 U mg-1; Kb (Oxytocin receptor [2]): 3.02 nM; Kb (Oxytocin receptor [3]): 13.2 nM |
| CCOc1ccc(C[C@@H]2NC(=O)CC3(CCCCC3)SSC[C@H](C(=O)N3CCC[C@H]3C(=O)N[C@@H](CCCN=C(N)N)C(=O)NCC(N)=O)NC(=O)[C@H](CC(N)=O)NC(=O)[C@H](C(C)C)NC(=O)[C@H](Cc3ccccc3)NC2=O)cc1 | 64.6 nM | – | – | – |
| CC[C@H](C)[C@@H]1NC(=O)[C@@H](Cc2cc3ccccc3[nH]2)NC(=O)CC2(CCCCC2)SSC[C@@H](C(=O)N2CCC[C@H]2C(=O)N[C@@H](CCCN=C(N)N)C(=O)NCC(N)=O)NC(=O)[C@H](CC(N)=O)NC(=O)[C@H](CCC(N)=O)NC1=O | – | – | 2 nM/kg | – |
| CC[C@H](C)[C@@H]1NC(=O)[C@H](Cc2ccc(O)cc2)N(C)C(=O)CC2(CCCCC2)SSC[C@H](C(=O)N2CCC[C@H]2C(=O)N[C@@H](CCCN)C(=O)NCC(N)=O)NC(=O)[C@H](CC(N)=O)NC(=O)[C@H](CCC(N)=O)NC1=O | – | – | 3.73 nM/kg | – |
| CC[C@H](C)[C@@H]1NC(=O)[C@@H](Cc2c[nH]c3ccccc23)NC(=O)CC2(CCCCC2)SSC[C@@H](C(=O)N2CCC[C@H]2C(=O)N[C@@H](CCCN=C(N)N)C(=O)NCC(N)=O)NC(=O)[C@H](CC(N)=O)NC(=O)[C@H](CCC(N)=O)NC1=O ([dW]IQNCPRG-NH2; linker N-5 via X2) | 27.5 nM | > 1260 nM | – | – |
| CC[C@H](C)[C@@H]1NC(=O)[C@H](Cc2ccc(OC)cc2)NC(=O)CC2(CCCCC2)SSC[C@@H](C(=O)N2CCC[C@H]2C(=O)N[C@@H](CCCN)C(=O)N[C@@H](Cc2ccc(O)cc2)C(N)=O)NC(=O)[C@H](CC(N)=O)NC(=O)[C@H]([C@@H](C)O)NC1=O | 95.5 nM | – | 6.6 nM/kg | Antidiuretic activity [6]: 0.015 U mg-1; Kb (Oxytocin receptor [2]): 23.4 nM; Kb (Oxytocin receptor [3]): 5.25 nM |
| CC[C@H](C)[C@@H]1NC(=O)[C@H](Cc2ccc(OC)cc2)NC(=O)CC2(CCCCC2)SSC[C@@H](C(=O)N2CCC[C@H]2C(=O)N[C@@H](CCCN)C(=O)O)NC(=O)[C@H](CC(N)=O)NC(=O)[C@H]([C@@H](C)O)NC1=O | 331 nM | 3160 nM | 23 nM/kg | Kb (Oxytocin receptor [3]): 5.75 nM; Kb (Oxytocin receptor [5]): 12.9 nM |
| CC(C)[C@@H]1NC(=O)[C@H](Cc2ccccc2)NC(=O)[C@@H](Cc2ccccc2)NC(=O)CC2(CCCCC2)SSC[C@@H](C(=O)N2CCC[C@H]2C(=O)N[C@@H](CCCN=C(N)N)C(=O)NCC(N)=O)NC(=O)[C@H](CC(N)=O)NC1=O | 8.71 nM | 8.51 nM | – | – |
| CC[C@H](C)[C@@H]1NC(=O)[C@H](Cc2ccc(OC)cc2)NC(=O)CC2(CCCCC2)SSC[C@H](C(=O)N2CCC[C@H]2C(=O)N[C@@H](CCCN)C(=O)N[C@@H](Cc2ccc(O)cc2)C(N)=O)NC(=O)[C@H](CC(N)=O)NC(=O)[C@H]([C@@H](C)O)NC1=O [listing 2 of 2 here] | – | – | – | ED (Rattus norvegicus [8]): 5.63 nM/kg |
| CC[C@H](C)[C@@H]1NC(=O)[C@@H](Cc2c[nH]c3ccccc23)NC(=O)CC2(CCCCC2)SSC[C@H](C(=O)N2CCC[C@H]2C(=O)N[C@@H](CCCN=C(N)N)C(=O)NCC(N)=O)NC(=O)[C@H](CC(N)=O)NC(=O)[C@H](CCC(N)=O)NC1=O ([dW]IQN[dC]PRG-NH2; linker N-5 via X2) | 29.5 nM | > 2510 nM | – | – |
| CC(C)[C@@H]1NC(=O)[C@@H](Cc2ccccc2)NC(=O)[C@@H](Cc2ccccc2)NC(=O)CC2(CCCCC2)SSC[C@@H](C(=O)N2CCC[C@H]2C(=O)N[C@@H](CCCN=C(N)N)C(=O)NCC(N)=O)NC(=O)[C@@H](CC(N)=O)NC1=O | – | – | 0.58 nM/kg | ED [6]: 0.67 nM/kg |
